Measurements: ChEMBL document CHEMBL5331076, “Streptogramin A derivatives as mitochondrial translation inhibitors to suppress glioblastoma stem cell growth” (Eur J Med Chem, 2023)
Active and inactive are the calls of the source. The calls are words filed in the database; no cut-off is given here.

Columns and labels:
COMI [1] = assay: Growth inhibition of human COMI cells incubated for 48 hrs by Hoechst 33342/PI staining based analysis; format: functional
COMI [2] = assay: Inhibition of mitochondrial translation in human COMI cells assessed as increase in COX4 expression level incubated for 48 hrs by immunoblotting analysis; format: functional, cell-based
COMI [3] = assay: Growth inhibition of human COMI cells incubated for 48 hrs in the presence of quinupristin by Hoechst 33342/PI staining based analysis; format: functional
COMI [4] = assay: Inhibition of mitochondrial translation in human COMI cells assessed as decrease in COX1 expression level incubated for 48 hrs by immunoblotting analysis; format: functional, cell-based
COMI [5] = assay: Inhibition of mitochondrial translation in human COMI cells assessed as decrease in COX2 expression level incubated for 48 hrs by immunoblotting analysis; format: functional, cell-based
COMI [6] = assay: Inhibition of mitochondrial translation in human COMI cells assessed as decrease in ND3 expression level incubated for 48 hrs by immunoblotting analysis; format: functional, cell-based
COMI [7] = assay: Inhibition of mitochondrial translation in human COMI cells assessed as decrease in COX1 expression level at >25 uM incubated for 48 hrs by immunoblotting analysis; format: functional, cell-based
COMI [8] = assay: Inhibition of mitochondrial translation in human COMI cells assessed as increase in COX4 expression level at >25 uM incubated for 48 hrs by immunoblotting analysis; format: functional, cell-based
COMI [9] = assay: Inhibition of mitochondrial translation in human COMI cells assessed as decrease in ND3 expression level at >25 uM incubated for 48 hrs by immunoblotting analysis; format: functional, cell-based
COMI [10] = assay: Inhibition of mitochondrial translation in human COMI cells assessed as decrease in COX2 expression level at >25 uM incubated for 48 hrs by immunoblotting analysis; format: functional, cell-based
COMI [11] = assay: Inhibition of mitochondrial translation in human COMI cells assessed as decrease in COX1 expression level at 0.5 to 5 uM incubated for 48 hrs by immunoblotting analysis; format: functional, cell-based; details: dose 0.5-5 µM
COMI [12] = assay: Inhibition of mitochondrial translation in human COMI cells assessed as decrease in COX2 expression level at 0.5 to 5 uM incubated for 48 hrs by immunoblotting analysis; format: functional, cell-based; details: dose 0.5-5 µM
COMI [13] = assay: Inhibition of mitochondrial translation in human COMI cells assessed as increase in COX4 expression level at 0.5 to 5 uM incubated for 48 hrs by immunoblotting analysis; format: functional, cell-based; details: dose 0.5-5 µM
COMI [14] = assay: Inhibition of mitochondrial translation in human COMI cells assessed as decrease in ND3 expression level at 0.5 to 5 uM incubated for 48 hrs by immunoblotting analysis; format: functional, cell-based; details: dose 0.5-5 µM
VIPI = assay: Growth inhibition of human VIPI cells; format: functional
COMI [15] = assay: Growth inhibition of human COMI cells; format: functional

| Compound | GI50 (COMI [1]) | inhibition (COMI [2]) | GI50 (COMI [3]) | inhibition (COMI [4]) | inhibition (COMI [5]) | inhibition (COMI [6]) | other results |
| --- | --- | --- | --- | --- | --- | --- | --- |
| CC1=CC2CNC(=O)/C=C/[C@@H](C)[C@@H](C(C)C)OC(=O)C3=CCCN3C(=O)c3coc(n3)CC(=O)C[C@H](O)C1C1C(=O)OC(=O)C21 (some centres undefined) | > 100 µM | inactive | 19.6 µM | inactive | inactive | inactive |  |
| CCN(CC)CCOC1CCN2C(=O)c3coc(n3)C[C@H](O)C[C@H](O)/C=C(C)/C=C/CNC(=O)/C=C/[C@@H](C)[C@@H](C(C)C)OC(=O)C12 (some centres undefined) | 85.3 µM |  | 14 µM |  |  |  | inhibition (COMI [7]): Active; inhibition (COMI [8]): Active; inhibition (COMI [9]): Active; inhibition (COMI [10]): Active |
| CCN(CC)CCS(=O)(=O)[C@@H]1CCN2C(=O)c3coc(n3)C[C@@H](O)C[C@H](O)/C=C(C)/C=C/CNC(=O)/C=C/[C@@H](C)[C@@H](C(C)C)OC(=O)[C@@H]12 | 18.8 µM | Active | 5.17 µM | Active | Active | Active |  |
| CN[C@H]1Cc2nc(co2)C(=O)N2CCC=C2C(=O)O[C@H](C(C)C)[C@H](C)/C=C/C(=O)NC/C=C/C(C)=C/[C@@H](O)C1 | 19.4 µM |  | 6.57 µM |  |  |  | inhibition (COMI [11]): inactive; inhibition (COMI [12]): inactive; inhibition (COMI [13]): inactive; inhibition (COMI [14]): inactive |
| Cn1nnc2c(C(N)=O)ncn2c1=O [TEMOZOLOMIDE] |  |  |  |  |  |  | GI50 (VIPI): 338 µM; GI50 (COMI [15]): 96.5 µM |
| CC1=C\[C@@H](O)C[C@@H](O)Cc2nc(co2)C(=O)N2CCC=C2C(=O)O[C@H](C(C)C)[C@H](C)/C=C/C(=O)NC\C=C\1 | 21.7 µM | Active | 5.28 µM | Active | Active | Active |  |
| CC1=C\[C@@H](O)C[C@@H](F)Cc2nc(co2)C(=O)N2CCC[C@@H]2C(=O)O[C@H](C(C)C)[C@H](C)/C=C/C(=O)NC\C=C\1 | 7.37 µM |  | 5.83 µM |  |  |  | inhibition (COMI [11]): Active; inhibition (COMI [12]): Active; inhibition (COMI [13]): Active; inhibition (COMI [14]): Active |
| CCN(CC)CCS(=O)(=O)[C@@H]1CCN2C(=O)c3coc(n3)CC(=O)C[C@H](O)C3C(C)=CC(CNC(=O)/C=C/[C@@H](C)[C@@H](C(C)C)OC(=O)[C@@H]12)C1C(=O)NC(=O)C13 (some centres undefined) | > 100 µM | inactive | 14.5 µM | inactive | inactive | inactive |  |
| CCN(CC)CCS(=O)(=O)[C@@H]1CCN2C(=O)c3coc(n3)C[C@@H](NC)C[C@H](O)/C=C(C)/C=C/CNC(=O)/C=C/[C@@H](C)[C@@H](C(C)C)OC(=O)[C@@H]12 | 1.56 µM |  | 1.32 µM |  |  |  | inhibition (COMI [11]): inactive; inhibition (COMI [12]): inactive; inhibition (COMI [13]): inactive; inhibition (COMI [14]): inactive |
| CC1=C\[C@@H](O)C[C@@H](F)Cc2nc(co2)C(=O)N2CCC=C2C(=O)O[C@H](C(C)C)[C@H](C)/C=C/C(=O)NC\C=C\1 | 4.82 µM |  | 5.42 µM |  |  |  | inhibition (COMI [11]): Active; inhibition (COMI [12]): Active; inhibition (COMI [13]): Active; inhibition (COMI [14]): Active |
| CCN(CC)CCNC1CCN2C(=O)c3coc(n3)C[C@H](O)C[C@H](O)/C=C(C)/C=C/CNC(=O)/C=C/[C@@H](C)[C@@H](C(C)C)OC(=O)C12 (some centres undefined) | > 100 µM |  | 16.9 µM |  |  |  | inhibition (COMI [7]): Active; inhibition (COMI [8]): Active; inhibition (COMI [9]): Active; inhibition (COMI [10]): Active |
| CC1=C\C=C\C(=O)Cc2nc(co2)C(=O)N2CCC=C2C(=O)O[C@H](C(C)C)[C@H](C)/C=C/C(=O)NC\C=C\1 | 20.5 µM |  | 15.6 µM |  |  |  |  |
| CN[C@@H]1Cc2nc(co2)C(=O)N2CCC=C2C(=O)O[C@H](C(C)C)[C@H](C)/C=C/C(=O)NC/C=C/C(C)=C/[C@@H](O)C1 | 1.16 µM |  | 1.5 µM |  |  |  | inhibition (COMI [11]): inactive; inhibition (COMI [12]): inactive; inhibition (COMI [13]): inactive; inhibition (COMI [14]): inactive |
| CCN(CC)CCS(=O)(=O)[C@@H]1CCN2C(=O)c3coc(n3)CC(=O)/C=C/C=C(C)/C=C/CNC(=O)/C=C/[C@@H](C)[C@@H](C(C)C)OC(=O)[C@@H]12 | 10.9 µM |  | 9.9 µM |  |  |  |  |
| CC1=CC2CNC(=O)/C=C/[C@@H](C)[C@@H](C(C)C)OC(=O)C3=CCCN3C(=O)c3coc(n3)CC(=O)C[C@H](O)C1C1C(=O)NC(=O)C21 (some centres undefined) | > 100 µM | inactive | 16.4 µM | inactive | inactive | inactive |  |
| CC1=C\[C@@H](O)C[C@H](F)Cc2nc(co2)C(=O)N2CCC=C2C(=O)O[C@H](C(C)C)[C@H](C)/C=C/C(=O)NC\C=C\1 | 36.1 µM | Active | 12.3 µM | Active | Active | Active |  |
| CC1=C\[C@@H](O)CC(=O)Cc2nc(co2)C(=O)N2CCC=C2C(=O)O[C@H](C(C)C)[C@H](C)/C=C/C(=O)NC\C=C\1 [VIRGINIAMYCIN FACTOR M1] | 17.1 µM |  | 7.25 µM |  |  |  |  |
| CCN(CC)CCS(=O)(=O)[C@@H]1CCN2C(=O)c3coc(n3)CC(=O)C[C@H](O)C3C(C)=CC(CNC(=O)/C=C/[C@@H](C)[C@@H](C(C)C)OC(=O)[C@@H]12)C1C(=O)OC(=O)C13 (some centres undefined) | > 100 µM | inactive | 14.8 µM | inactive | inactive | inactive |  |
| CCN(CC)CCS(=O)(=O)[C@@H]1CCN2C(=O)c3coc(n3)C[C@H](F)C[C@H](O)/C=C(C)/C=C/CNC(=O)/C=C/[C@@H](C)[C@@H](C(C)C)OC(=O)[C@@H]12 | 6.73 µM |  | 5.71 µM |  |  |  | inhibition (COMI [11]): Active; inhibition (COMI [12]): Active; inhibition (COMI [13]): Active; inhibition (COMI [14]): Active |
| CCN(CC)CCS(=O)(=O)[C@@H]1CCN2C(=O)c3coc(n3)C[C@H](O)C[C@H](O)/C=C(C)/C=C/CNC(=O)/C=C/[C@@H](C)[C@@H](C(C)C)OC(=O)[C@@H]12 | 37.5 µM | Active | 7.05 µM | Active | Active | Active |  |
| CC1=C\[C@@H](O)C[C@H](O)Cc2nc(co2)C(=O)N2CCC=C2C(=O)O[C@H](C(C)C)[C@H](C)/C=C/C(=O)NC\C=C\1 | 52.5 µM | Active | 8.74 µM | Active | Active | Active |  |
| CCN(CC)CCS(=O)(=O)[C@@H]1CCN2C(=O)c3coc(n3)C[C@@H](F)C[C@H](O)/C=C(C)/C=C/CNC(=O)/C=C/[C@@H](C)[C@@H](C(C)C)OC(=O)[C@@H]12 | 20.5 µM | Active | 8.37 µM | Active | Active | Active |  |
| CCN(CC)CCS[C@@H]1CCN2C(=O)c3coc(n3)CC(=O)C[C@H](O)/C=C(C)/C=C/CNC(=O)/C=C/[C@@H](C)[C@@H](C(C)C)OC(=O)[C@@H]12 | 7.02 µM |  | 8 µM |  |  |  |  |
| CCN(CC)CCS(=O)(=O)[C@@H]1CCN2C(=O)c3coc(n3)C[C@H](NC)C[C@H](O)/C=C(C)/C=C/CNC(=O)/C=C/[C@@H](C)[C@@H](C(C)C)OC(=O)[C@@H]12 | 14.2 µM |  | 4.85 µM |  |  |  | inhibition (COMI [11]): inactive; inhibition (COMI [12]): inactive; inhibition (COMI [13]): inactive; inhibition (COMI [14]): inactive |
